# Test results taken from ChEMBL document CHEMBL5614436, “Targeting HSP90 for Cancer Therapy: Current Progress and Emerging Prospects” (J Med Chem, 2024).
# Columns and labels:
# Endoplasmin = Endoplasmin (Homo sapiens, UniProt P14625); experiment: Inhibition of recombinant GRP94 (unknown origin)
# [1] = biological target: T1, Heat shock protein HSP 90-alpha (Homo sapiens, UniProt P07900); experiment: Inhibition of HSP90alpha (unknown origin)
# [2] = biological target: Serine/threonine-protein kinase B-raf (Homo sapiens, UniProt P15056); experiment: Inhibition of B-Raf (unknown origin)
# Chain of Serine/threonine-protein kinase B-raf (Homo sapiens, UniProt P15056) (P15056 whole entry): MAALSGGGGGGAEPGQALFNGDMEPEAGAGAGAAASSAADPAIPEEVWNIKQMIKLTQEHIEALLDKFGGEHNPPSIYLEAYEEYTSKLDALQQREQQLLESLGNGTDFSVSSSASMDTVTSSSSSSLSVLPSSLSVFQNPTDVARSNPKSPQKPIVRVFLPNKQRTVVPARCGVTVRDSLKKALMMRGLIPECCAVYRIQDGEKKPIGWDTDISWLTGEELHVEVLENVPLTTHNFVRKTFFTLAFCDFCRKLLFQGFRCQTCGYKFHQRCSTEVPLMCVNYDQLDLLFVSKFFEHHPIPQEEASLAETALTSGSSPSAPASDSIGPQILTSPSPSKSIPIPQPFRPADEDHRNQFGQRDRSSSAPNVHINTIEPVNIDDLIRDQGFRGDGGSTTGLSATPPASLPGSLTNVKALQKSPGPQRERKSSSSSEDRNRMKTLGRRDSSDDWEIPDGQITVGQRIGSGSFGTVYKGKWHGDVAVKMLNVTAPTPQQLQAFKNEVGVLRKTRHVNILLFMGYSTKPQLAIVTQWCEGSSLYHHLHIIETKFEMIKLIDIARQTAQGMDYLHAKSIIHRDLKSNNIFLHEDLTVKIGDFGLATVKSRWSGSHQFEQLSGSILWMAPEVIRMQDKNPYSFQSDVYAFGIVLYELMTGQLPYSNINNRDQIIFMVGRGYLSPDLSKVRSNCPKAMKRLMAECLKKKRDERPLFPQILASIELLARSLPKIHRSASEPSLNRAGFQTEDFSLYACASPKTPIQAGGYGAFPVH
# [3] = biological target: Serine/threonine-protein kinase B-raf (Homo sapiens, UniProt P15056, V600E); experiment: Inhibition of B-Raf V600E mutant (unknown origin)
# Chain of Serine/threonine-protein kinase B-raf (Homo sapiens, UniProt P15056, V600E) (P15056 2-766 V600E limits assumed): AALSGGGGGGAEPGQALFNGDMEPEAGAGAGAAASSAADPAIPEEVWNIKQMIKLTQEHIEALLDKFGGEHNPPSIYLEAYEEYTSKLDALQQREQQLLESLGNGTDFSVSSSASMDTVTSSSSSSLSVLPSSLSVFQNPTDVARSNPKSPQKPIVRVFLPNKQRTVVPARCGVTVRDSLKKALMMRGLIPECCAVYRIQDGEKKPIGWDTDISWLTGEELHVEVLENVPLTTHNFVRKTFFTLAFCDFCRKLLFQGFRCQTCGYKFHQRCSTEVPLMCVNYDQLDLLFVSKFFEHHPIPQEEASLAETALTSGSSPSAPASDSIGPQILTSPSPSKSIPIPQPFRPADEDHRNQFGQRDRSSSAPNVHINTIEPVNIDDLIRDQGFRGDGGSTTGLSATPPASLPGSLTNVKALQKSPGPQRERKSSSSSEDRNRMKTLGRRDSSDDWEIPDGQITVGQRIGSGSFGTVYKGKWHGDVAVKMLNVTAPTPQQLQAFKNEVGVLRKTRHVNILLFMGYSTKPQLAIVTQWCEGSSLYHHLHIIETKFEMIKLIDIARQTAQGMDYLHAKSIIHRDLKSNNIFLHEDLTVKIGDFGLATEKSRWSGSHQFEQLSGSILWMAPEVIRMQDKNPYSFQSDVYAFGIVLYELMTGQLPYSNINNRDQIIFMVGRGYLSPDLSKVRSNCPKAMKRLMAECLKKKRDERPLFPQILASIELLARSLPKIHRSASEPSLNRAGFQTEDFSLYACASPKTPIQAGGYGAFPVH
# [4] = Inhibition of HSP90 (unknown origin) by AlphaScreen assay; parameters: species or system Homo sapiens
# [5] = biological target: [Pyruvate dehydrogenase (acetyl-transferring)] kinase isozyme 1, mitochondrial (Homo sapiens, UniProt Q15118); experiment: Inhibition of PDHK1 (unknown origin)
# Chain of [Pyruvate dehydrogenase (acetyl-transferring)] kinase isozyme 1, mitochondrial (Q15118 whole entry): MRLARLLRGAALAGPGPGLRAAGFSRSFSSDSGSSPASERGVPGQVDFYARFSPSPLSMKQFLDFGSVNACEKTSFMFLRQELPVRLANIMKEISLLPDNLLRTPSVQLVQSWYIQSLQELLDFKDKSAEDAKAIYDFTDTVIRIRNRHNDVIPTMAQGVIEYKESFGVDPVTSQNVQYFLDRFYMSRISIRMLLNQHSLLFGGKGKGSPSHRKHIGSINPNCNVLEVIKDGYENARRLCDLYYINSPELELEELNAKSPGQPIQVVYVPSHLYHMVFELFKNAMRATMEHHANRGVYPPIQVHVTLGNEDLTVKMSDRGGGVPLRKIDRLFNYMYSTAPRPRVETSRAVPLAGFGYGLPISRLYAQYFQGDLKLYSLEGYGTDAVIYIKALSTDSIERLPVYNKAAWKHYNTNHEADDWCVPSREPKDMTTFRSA
# [6] = biological target: Heat shock protein HSP 90-beta (Homo sapiens, UniProt P08238); experiment: Binding affinity to HSP90beta (unknown origin) assessed as dissociation constant by fluorescence polarization assay
# Chain of Heat shock protein HSP 90-beta (P08238 whole entry): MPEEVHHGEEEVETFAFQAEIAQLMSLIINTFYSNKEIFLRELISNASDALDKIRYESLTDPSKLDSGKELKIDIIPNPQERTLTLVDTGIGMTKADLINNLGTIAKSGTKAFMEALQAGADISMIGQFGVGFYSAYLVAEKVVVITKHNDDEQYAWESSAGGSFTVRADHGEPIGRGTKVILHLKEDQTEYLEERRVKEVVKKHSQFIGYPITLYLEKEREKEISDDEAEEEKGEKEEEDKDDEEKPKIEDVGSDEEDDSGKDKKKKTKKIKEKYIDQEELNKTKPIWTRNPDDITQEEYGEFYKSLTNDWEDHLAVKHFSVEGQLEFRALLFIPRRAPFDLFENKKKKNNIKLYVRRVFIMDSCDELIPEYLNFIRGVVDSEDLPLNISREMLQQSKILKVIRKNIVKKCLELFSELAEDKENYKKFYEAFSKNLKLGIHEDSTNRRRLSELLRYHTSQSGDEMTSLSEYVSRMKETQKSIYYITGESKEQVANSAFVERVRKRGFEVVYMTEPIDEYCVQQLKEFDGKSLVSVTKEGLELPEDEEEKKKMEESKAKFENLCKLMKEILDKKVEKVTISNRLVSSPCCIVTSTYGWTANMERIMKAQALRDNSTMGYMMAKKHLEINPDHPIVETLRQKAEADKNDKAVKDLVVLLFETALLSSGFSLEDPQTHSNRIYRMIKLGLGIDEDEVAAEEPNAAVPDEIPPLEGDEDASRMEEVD
# Tubulin = experiment: Inhibition of tubulin polymerization (unknown origin); type: protein-complex assay, Homo sapiens
# [7] = biological target: T1, Heat shock protein HSP 90-alpha; experiment: Binding affinity to HSP90alpha (unknown origin) assessed as dissociation constant by fluorescence polarization assay
# [8] = Inhibition of DNA topoisomerase 2 (unknown origin); parameters: species or system Homo sapiens
# [9] = biological target: T1, Heat shock protein HSP 90-alpha; experiment: Binding affinity to recombinant HSP90alpha (unknown origin) assessed as dissociation constant measured for 24 hrs by fluorescence polarization assay
# Chain of Endoplasmin (P14625 whole entry): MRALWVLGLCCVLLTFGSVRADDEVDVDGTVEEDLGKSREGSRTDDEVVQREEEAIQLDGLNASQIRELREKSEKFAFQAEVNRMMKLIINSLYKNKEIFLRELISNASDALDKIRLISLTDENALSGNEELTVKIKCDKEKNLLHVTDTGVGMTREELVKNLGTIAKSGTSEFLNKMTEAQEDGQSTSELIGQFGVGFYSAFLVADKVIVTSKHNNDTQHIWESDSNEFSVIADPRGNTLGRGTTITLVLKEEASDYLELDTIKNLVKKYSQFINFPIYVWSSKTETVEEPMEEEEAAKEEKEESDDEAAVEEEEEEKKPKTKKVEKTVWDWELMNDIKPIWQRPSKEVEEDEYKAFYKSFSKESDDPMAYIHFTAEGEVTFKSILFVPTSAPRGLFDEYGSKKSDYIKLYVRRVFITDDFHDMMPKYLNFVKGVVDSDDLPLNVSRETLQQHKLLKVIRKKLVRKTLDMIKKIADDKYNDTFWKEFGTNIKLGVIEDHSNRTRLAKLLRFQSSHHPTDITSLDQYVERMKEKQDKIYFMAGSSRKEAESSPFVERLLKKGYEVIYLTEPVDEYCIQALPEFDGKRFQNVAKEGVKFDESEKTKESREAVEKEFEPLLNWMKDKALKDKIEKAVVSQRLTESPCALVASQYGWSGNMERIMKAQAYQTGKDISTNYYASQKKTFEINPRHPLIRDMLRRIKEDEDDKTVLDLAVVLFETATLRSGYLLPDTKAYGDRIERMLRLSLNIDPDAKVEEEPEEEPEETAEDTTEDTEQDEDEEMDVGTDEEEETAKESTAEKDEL
smiles,measurement,setting,value
CCOc1ccccc1Cn1ccnc1CCc1c(Cl)c(O)cc(O)c1C(=O)OC,IC50,Endoplasmin,0.2 µM
same,IC50,[1],8.1 µM
N#Cc1c(N)nc2sc(C(N)=O)c(N)c2c1-c1ccc(Cl)cc1,IC50,[2],1.5 µM
same,IC50,[3],2.5 µM
CC(C)c1cc(C(=O)N2CCc3c(sc4nc(-c5ccc(NC(=O)Nc6ccc(F)c(Cl)c6)cc5)nc(N5CCOCC5)c34)C2)c(O)cc1O,IC50,[4],0.069 µM
COc1ccc(-c2c(/C=C/C(=O)N3CCN(c4ccccc4OC)CC3)noc2-c2cc(Cl)c(O)cc2O)cc1,IC50,[5],0.6 µM
CC(C)c1cc(C(=O)N2Cc3ccc(CN4CCN(C)CC4)cc3C2)c(O)cc1O [ONALESPIB],Kd,[6],9 µM
COc1ccc(-c2c(C#N)c(N)nc3sc(C(N)=O)c(N)c23)cc1OC,IC50,[2],28.9 µM
same,IC50,[3],9.1 µM
CN(C)c1ccc(/C=C2\S/C(=N/c3ccccc3Cl)NC2=O)cc1,IC50,[4],5.2 µM
same,IC50,Tubulin,16.7 µM
Cc1ccc(Sc2cc(C(=O)N3Cc4ccc(OCCC[N+](C)(C)C)cc4C3)ccc2O)cc1C,Kd,[7],0.34 µM
same,Kd,[6],> 100 µM
COc1ccc(CN2CCC(NC(=O)c3noc(-c4cc(Cl)c(O)cc4O)c3-c3ccc(OC)cc3)CC2)cc1,IC50,[5],0.01 µM
CC1(C)CC(=O)C=C(Nc2c(N)[nH]c(=O)[nH]c2=O)C1,IC50,[4],1.78 µM
same,IC50,[8],4.48 µM
Cc1c(C)c(S(=O)(=O)Nc2ccc(Nc3ccnc(N4CCNCC4)n3)cc2)c(C)c2c1OC(C)(C)C2,Kd,[7],5.52 µM
CCOC(=O)c1c(O)cc(O)c(Cl)c1CC(=O)Nc1cc(O)c(OC)cc1O,Kd,[7],0.87 µM
same,Kd,[9],0.87 µM
CC(C)c1cc(C(=O)N2Cc3ccccc3C2)c(O)c2ccoc12,Kd,[7],> 100 µM
same,Kd,[6],0.27 µM
